Results published in US6979686B1, “Substituted pyrazoles as p38 kinase inhibitors” (Pharmacia Corporation, priority 2001, dated 2005).
Counter-ions that a name gives are not always drawn. Like-named read-outs stand apart in the source and are kept apart here.

Experiments:
[1] = test system: TNF-a, human peripheral blood mononuclear cells; assay: LPS stimulation of human PBMs, TNF-a by ELISA; format: cell-based; settings: Table 5, LPS-stimulated human PBM cells, TNF cell assay
Method: Method of Isolation of Human Peripheral Blood Mononuclear Cells:
Human whole blood was collected in Vacutainer tubes containing EDTA as an anticoagulant. A blood sample (7 ml) was carefully layered over 5 ml PMN Cell Isolation Medium (Robbins Scientific) in a 15 ml round bottom centrifuge tube. The sample was centrifuged at 450-500×g for 30-35 minutes in a swing out rotor at room temperature. After centrifugation, the top band of cells were removed and washed 3 times with PBS w/o calcium or magnesium. The cells were centrifuged at 400×g for 10 minutes at room temperature. The cells were resuspended in Macrophage Serum Free Medium (Gibco BRL) at a concentration of 2 million cells/ml.
LPS Stimulation of Human PBMs:
Compounds were dissolved in DMSO initially and diluted in TCM for a final concentration of 0.1% DMSO. LPS (Calbiochem, 20 ng/ml, final concentration) was then added at a volume of 0.010 ml. Cultures were incubated overnight at 37° C. Supernatants were then removed and tested by ELISA for TNF-a and IL1-b. Viability was analyzed using MTS. After 0.1 ml supernatant was collected, 0.020 ml MTS was added to remaining 0.1 ml cells.

human p38 kinase alpha = biological target: T1, human p38 kinase alpha (Homo sapiens, UniProt Q16539); assay: p38 kinase in vitro assay, phosphorylation of biotinylated PHAS-I with 32P-ATP; format: biochemical; settings: activated human p38 kinase alpha, PHAS-I substrate, 50 μM unlabeled ATP; read-out: p38 kinase IC50
T1 construct: GST (N, cleaved yes); made in house; host or cells: E. coli DH10B
T1 sequence (Q16539 whole entry): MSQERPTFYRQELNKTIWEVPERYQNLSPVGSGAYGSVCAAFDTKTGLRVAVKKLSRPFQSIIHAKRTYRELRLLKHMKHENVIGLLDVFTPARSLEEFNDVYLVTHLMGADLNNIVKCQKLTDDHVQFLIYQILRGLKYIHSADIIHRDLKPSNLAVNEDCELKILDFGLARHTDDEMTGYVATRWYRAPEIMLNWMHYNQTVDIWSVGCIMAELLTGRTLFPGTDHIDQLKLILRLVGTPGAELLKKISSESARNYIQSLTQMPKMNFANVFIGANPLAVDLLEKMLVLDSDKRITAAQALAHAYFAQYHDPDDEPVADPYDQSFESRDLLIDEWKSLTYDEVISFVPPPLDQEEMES

[2] = test system: TNF-α, U937 human histiocytic lymphoma cell line; assay: LPS stimulation of TNF production by U937 cells; format: cell-based; settings: Table 5; LPS-stimulated U937 cells, TNF-α; read-out: U937 Cell Assay IC50
In short: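 U937 cells differentiated 24 h with 20 ng/ml PMA, rested 24-48 h, used at 2 million cells/ml. Compounds in 0.1% DMSO final; LPS (E. coli, 100 ng/ml final) stimulation for 4 h at 37° C. Released TNF-α measured by ELISA; IC50 (μM).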

[3] = test system: collagen-induced arthritis, DBA/1 male mice; assay: Collagen-induced arthritis in mice; format: in vivo, mouse; settings: oral gavage b.i.d., day 20 to day 56
Method: Induction and Assessment of Collagen-induced Arthritis in Mice:
Arthritis was induced in mice according to the procedure set forth in J. M. Stuart, Collagen Autoimmune Arthritis, Annual Rev. Immunol. 2:199 (1984), which is incorporated herein by reference. Specifically, arthritis was induced in 8-12 week old DBA/1 male mice by injection of 50 μg of chick type II collagen (CII) (provided by Dr. Marie Griffiths, Univ. of Utah, Salt Lake City, Utah) in complete Freund's adjuvant (Sigma) on day 0 at the base of the tail. Injection volume was 100 μl. Animals were boosted on day 21 with 50 μg of CII in incomplete Freund's adjuvant (100 μl volume). Animals were evaluated several times each week for signs of arthritis. Any animal with paw redness or swelling was counted as arthritic. Scoring of arthritic paws was conducted in accordance with the procedure set forth in Wooley et al., Genetic Control of Type II Collagen Induced Arthritis in Mice: Factors Influencing Disease Suspectibility and Evidence for Multiple MHC Associated Gene Control., Trans. Proc., 15:180 (1983). Scoring of severity was carried out using a score of 1-3 for each paw (maximal score of 12/mouse). Animals displaying any redness or swelling of digits or the paw were scored as 1. Gross swelling of the whole paw or deformity was scored as 2. Ankylosis of joints was scored as 3. Animals were evaluated for 8 weeks. 8-10 animals per group were used.
Preparation and Administration of Compounds:
The compounds tested on mice having collagen-induced arthritis were prepared as a suspension in 0.5% methylcelluose (Sigma, St. Louis, Mo.), 0.025% Tween 20 (Sigma). The compound suspensions were administered by oral gavage in a volume of 0.1 ml b.i.d. Administration began on day 20 post collagen injection and continued daily until final evaluation on day 56. Scoring of arthritic paws was conducted as set forth above.

[4] = test system: TNF alpha, BALB/c mice injected with LPS; assay: Mouse model of LPS-induced TNF alpha production; format: in vivo; settings: Table 6; mouse LPS, head '8 h', dose 30, oral gavage
Method: Mouse Model of LPS-induced TNF Alpha Production:
TNF alpha was induced in 10-12 week old BALB/c female mice by tail vein injection with 100 ng lipopolysaccharide (from S. Typhosa) in 0.2 ml saline. One hour later mice were bled from the retroorbital sinus and TNF concentrations in serum from clotted blood were quantified by ELISA.
Efficacy was determined at each time point as percent inhibition of serum TNF levels relative to LPS injected mice that received vehicle only.
In vivo assessment of the ability of the compounds to inhibit LPS-stimulated TNP release in the mouse is shown in the column identified as: • “Mouse LPS Model, % TNF inhib @ dose @ predose time” wherein in the dose is milligram per kilogram (mpk) administered by oral gavage and the predose time indicates the number of hours before LPS challenge when the compound is administered.

[5] = biological target: T2, human GST-p38 kinase alpha (Homo sapiens, UniProt Q16539); assay: p38 kinase in vitro assay, second format, phosphorylation of EGFRP with 33P-ATP; format: biochemical
T2 construct: made in house; host or cells: E. coli DH10B
T2 sequence (Q16539 whole entry): as above
Method: The ability of compounds to inhibit human p38 kinase alpha was evaluated using two in vitro assay methods. In the first method, activated human p38 kinase alpha phosphorylates a biotinylated substrate, PHAS-I (phosphorylated heat and acid stable protein-insulin inducible), in the presence of gamma ^32P-ATP (^32P-ATP). PHAS-I was biotinylated prior to the assay and provides a means of capturing the substrate which is phosphorylated during the assay. p38 Kinase was activated by MKK6. Compounds were tested in 10 fold serial dilutions over the range of 100 μM to 0.001 μM using 1% DMSO. Each concentration of inhibitor was tested in triplicate.
A second assay format was also employed that is based on p38 kinase alpha induced phosphorylation of EGFRP (epidermal growth factor receptor peptide, a 21 mer) in the presence of ^33P-ATP. Compounds were tested in 10 fold serial dilutions over the range of 100 μM to 0.001 μM in 10% DMSO. Each concentration of inhibitor was tested in triplicate. Compounds were evaluated in 50 μl reaction volumes in the presence of 25 mM Hepes pH 7.5, 10 mM magnesium acetate, 4% glycerol, 0.4% bovine serum albumin, 0.4 mM DTT, 50 μM unlabeled ATP, 25 μg EGFRP (200 μM), and 0.05 μCi gamma ^33P-ATP. Reactions were initiated by addition of 0.09 μg of activated, purified human GST-p38 kinase alpha. Activation was carried out using GST-MKK6 (5:1,p38:MKK6) for one hour at 30° C. in the presence of 50 μM ATP. Following incubation for 60 minutes at room temperature, the reaction was stopped by addition of 150 μl of AG 1X8 resin in 900 mM sodium formate buffer, pH 3.0 (1 volume resin to 2 volumes buffer). The mixture was mixed three times with pipetting and the resin was allowed to settle. A total of 50 μl of clarified solution head volume was transferred from the reaction wells to Microlite-2 plates. 150 μl of Microscint 40 was then added to each well of the Microlite plate, and the plate was sealed, mixed, and counted.

[6] = test system: human TNF, human whole blood stimulated with LPS; assay: TNF inhibition: human whole blood assay; format: cell-based; settings: for TNF Inhibition-Human Whole Blood Assay: Table 9, percentage, concentration not given
Method: TNF Inhibition: Human Whole Blood Assay
Human peripheral blood is obtained in heparinized tubes. A 190 μL aliquot of blood is placed in each well of a 96 well u-bottom plate. […] After one hour of incubation at 37° C., […] of lipopolysaccharide (Salmonella typhosa, Sigma) in phosphate buffered saline is added resulting in a final concentration of […]. After four to five hours of incubation at 37° C., the supernatants are harvested and assayed at 1:10 or 1:20 dilutions for human TNF using ELISA.
In vitro human whole blood assay data for measuring the ability of the compounds to inhibit TNF production in human whole blood stimulated with LPS are shown in the column identified as: • “Human Whole Blood IC50, μM or %Inhib@conc. (μM)”
In vitro p38 alpha kinase inhibitory data are shown in the column identified as “p38 alpha IC50 (μM)”. In vitro human whole blood assay data for measuring the ability of the compounds to inhibit TNF production in human whole blood stimulated with LPS are shown in the column identified as: “HWB IC50 (μM)”. In vivo assessment of the ability of the compounds to inhibit LPS-stimulated TNF-release in the rat is shown in the column identified as: “ratLPS/%Inh@dose(mg/kg)”, wherein the dose is in milligram per kilogram (mg/kg) administered by oral gavage, 4 hours before LPS challenge.

[7] = Table 10, 10% DMSO, @ 1.0 hour, read-out: p38α Kinase Assay IC50

Cc1[nH]nc(-c2ccc(Cl)cc2)c1-c1ccncc1 [Example 7, 4-(3-(4-chlorophenyl)-5-methyl-1H-pyrazol-4-yl)pyridine]
IC50 ([1]; PBMC): 200 nM

CCc1[nH]nc(-c2cccc(C)c2)c1-c1ccncc1 [Example 45]
IC50 ([1]; PBMC): < 100 nM

CCCc1[nH]nc(-c2cccc(C)c2)c1-c1ccncc1 [Example A-26]
IC50 (human p38 kinase alpha): 700 nM | IC50 [1]: < 100 nM | IC50 [2]: 29 nM

CCc1[nH]nc(-c2ccccc2)c1-c1ccncc1 [Example A-43]
IC50 (human p38 kinase alpha): < 100 nM | IC50 [1]: < 100 nM | IC50 [2]: 243 nM

Cc1[nH]nc(-c2ccsc2)c1-c1ccncc1 [Example A-49]
IC50 [1]: 6800 nM

Fc1ccc(-c2[nH]nc(N3CCNCC3)c2-c2ccncc2)cc1 [Example A-172, 1-[5-(4-fluorophenyl)-4-(4-pyridinyl)-1H-pyrazol-3-yl]piperazine trihydrochloride]
% Inhibition of Arthritis ([3]; 100 mpk): 49.3 @ 100 mpk %

Fc1ccc(-c2[nH]nc(C3CC3)c2-c2ccncc2)cc1 [Example A-189, 4-[3-cyclopropyl-5-(4-fluorophenyl)-1H-pyrazol-4-yl]pyridine]
% Inhibition of Arthritis ([3]; 30 mpk): 51.6 @ 30 mpk %

OCCn1cc(-c2ccncc2)c(-c2ccc(F)cc2)n1 [Example A-210, 3-(4-fluorophenyl)-4-(4-pyridinyl)-1H-pyrazole-1-ethanol]
mLPS 8 h percent inhibition [4]: 85% | % Inhibition of Arthritis ([3]; 15 mpk): 58.5 @ 15 mpk %

Fc1ccc(-c2[nH]ncc2-c2ccnc(NCCn3ccnc3)c2)cc1 [Example A-268, 4-[3-(4-fluorophenyl)-1H-pyrazol-4-yl]-N-[2-(1H-imidazol-1-yl)ethyl]-2-pyridinamine]
IC50 ([5]; Table 6, EGFRP assay procedure, read-out: p38^2 (p38α in vitro assay, EGFRP assay procedure) IC50): < 10 nM

Fc1ccc(-c2n[nH]cc2-c2ccnc(NCCN3CCCCC3)c2)cc1 [Example A-375, 4-[3-(4-fluorophenyl)-1H-pyrazol-4-yl]-N-[2-(1-piperidinyl)ethyl]-2-pyridinamine]
TNF Inhibition-Human Whole Blood Assay [6]: 28%

O=C1CCN(c2[nH]nc(-c3ccc(F)cc3)c2-c2ccncc2)CC1 [Example A-378, 1-[5-(4-fluorophenyl)-4-(4-pyridinyl)-1H-pyrazol-3-yl]-4-piperidinone]
TNF Inhibition-Human Whole Blood Assay [6]: 49%

OC1CCN(c2[nH]nc(-c3ccc(F)cc3)c2-c2ccncc2)CC1 [Example A-379, 1-[5-(4-fluorophenyl)-4-(4-pyridinyl)-1H-pyrazol-3-yl]-4-piperidinol]
TNF Inhibition-Human Whole Blood Assay [6]: 44%

Fc1ccc(-c2n[nH]c(N3CCC4(CC3)OCCO4)c2-c2ccncc2)cc1 [Example A-380, 8-[5-(4-fluorophenyl)-4-(4-pyridinyl)-1H-pyrazol-3-yl]-1,4-dioxa-8-azaspiro[4.5]decane]
TNF Inhibition-Human Whole Blood Assay [6]: 32%

O[C@H]1CC[C@H](Nc2cc(-c3c[nH]nc3-c3ccc(F)cc3)ccn2)CC1 [Example A-386, trans-4-[[4-[3-(4-fluorophenyl)-1H-pyrazol-4-yl]-2-pyridinyl]amino]cyclohexanol]
IC50 ([5]; Table 9, 10% DMSO, read-out: p38α Kinase Assay IC50): 16 nM

O=C(C(=C1SCS1)c1ccncc1)c1ccc(I)cc1 [Example A-401]
IC50 [5, 7]: 21200 nM

COc1ccc(-c2n[nH]c(N3CCN(C)CC3)c2-c2ccncc2)cc1 [Example A-415, 1-(4-(4-methoxyphenyl)-4-(4-pyridinyl)-1H-pyrazol-3-yl]-4-methylpiperazine]
IC50 [5, 7]: 510 nM

Clc1ccc(-c2n[nH]c(SCCOC3CCCCO3)c2-c2ccncc2)cc1 (stereo not shown) [Example A-474]
IC50 ([6]; Homo sapiens, Table 10, read-out: TNF Inhibition-Human Whole Blood Assay): 1470 nM
